Source: patent EP2253266A1, “Method for treating patients with cerebral calcifications” (Assistance Publique - Hôpitaux de Paris, priority 2009, dated 2010)

Assays:
[1] = system: patients having diffuse cerebral calcifications; experiment: Clinical response to treatment of patients with cerebral calcifications and cerebral folate deficiency (global disability score, subjective evaluations, neurological examination, serial videos); type: in vivo, humans; set-up: key to Global score after treatment: 1: Autonomous for all activities of daily living; 2: can walk at least 100 meters alone, needs help for few activities of daily living; 3: can walk unaided about 10 meters, needs help for many activities of daily living; 4: can not walk alone, needs aid for most activities of daily living; conditions: for Global score after treatment: global score before treatment 3
Source text: Three patients having diffuse cerebral calcifications involving the basal ganglia, cerebellar dentate nuclei, white matter and in one patient the occipital cortex (Table 3) were studied. These neuroradiological findings were indistinguishable from Fahr's Syndrome (IBGC MIM # 114100, # 213600). […] Autonomous for all activities of daily living • 2: can walk at least 100 meters alone, needs help for few activities of daily living • 3: can walk unaided about 10 meters, needs help for many activities of daily living • 4: can not walk alone, needs aid for most activities of daily living. The clinical response to treatment was judged based on the patient's, patient's family, nurses and neurologist subjective evaluations, neurological examination and serial videos. A global disability score was designed to evaluate clinical severity and evolution (see table 3 legend). Table 4: Effect of treatments

[2] = quoted from WO 2006/119589; cited from earlier work
[3] = quoted from WO 2006/119589; cited from earlier work; remark: listed apart in the source

SMILES	Global score after treatment ([1]; patient #1, MTHF 2 mg/kg/d, treatment duration 2 years ½)	Global score after treatment ([1]; patient #2, MTHF 2 mg/kg/d, treatment duration 14 months)	Global score after treatment ([1]; patient #3, MTHF 1.5 mg/kg/d, treatment duration 1 year)	toxicity studies [2]	bio-availability [3]	other treatments leading to less or only transient improvement ([1]; patient #1, IVIg 0.4gr/kgX5d every 6weeks)	other treatments leading to less or only transient improvement ([1]; patient #3, Calcium folinate 75 mg/d)
CN1c2c(nc(N)[nH]c2=O)NCC1CNc1ccc(C(=O)NC(CCC(=O)O)C(=O)O)cc1 (stereo not shown) [MTHF, 5-methyltetrahydrofolate]	2	3	2	no adverse effects	high bio-availability	–	–
Nc1nc2c(c(=O)[nH]1)N(C=O)C(CNc1ccc(C(=O)N[C@@H](CCC(=O)O)C(=O)O)cc1)CN2 (stereo partly shown) [Calcium folinate, 5-formyltetrahydrofolic acid]	–	–	–	–	–	Calcium folinate led to marked initial impro-vement that waned after 6 months. IVIg (0.4gr/kgX5d every 6weeks) led to improvement of walking during 4 months	Calcium folinate 75 mg/d: same effect than MTHF
